Measured values as given in US6133264A, “Carbostyril derivatives for inhibiting skin erythema and/or skin pigmentation” (Otsuka Pharmaceutical Co., Ltd., priority 1997, dated 2000).

Tested on: not listed separately
Assay: DPPH free radical extinction activity test
Assay type: biochemical
Conditions: relative to α-tocopherol (= 2); 5 μl of 10 mM test compound, 30° C., 30 minutes, pH 5.5 buffer, 517 nm
Procedure: (1) DPPH free radical extinction activity test
The test was conducted by procedures according to the method by Marsden S. Blois [Nature, Vol. […], 1199-1200, (1958)].
Into 0.5 ml of 200 mM of acetic acid buffer solution (pH 5.5) were added 0.5 ml of distilled water, 0.5 ml of ethanol and 5 μl of 10 mM of the test compound solution (an ethanol solution, a dimethylformamide solution or an aqueous solution), and stirred at 30° C. for 5 minutes. To this mixed solution was added 1.5 ml of an ethanol solution of 250 μM of 1,1-diphenyl-2-picrylhydrazyl (DPPH), this mixture was incubated at 30° C. for 30 minutes. After the incubation, the optical absorbance (at 517 nm) of this reaction mixture was measured, and the number of captured free radicals of DPPH was calculated from the ratio of optical absorbance of test compound and that of α-tocopherol (standard substance: the number of captured free radicals: 2) by the following formula: […]
Number of captured free radicals of DPPH performed by test
(A): optical absorbance of the test sample, and
(B): optical absorbance of α-tocopherol].

| Structure (SMILES) | Number of captured free radicals of DPPH |
| --- | --- |
| Cl.O=c1ccc2c(CN3CCCC3)c(O)ccc2[nH]1 [Example 22, 6-hydroxy-5-(1-pyrrolidinyl)methyl-2(1H)-quinolinone hydrochloride] | 1.5 |
| CCN(CC)Cc1cc(C)c2c(c1O)CCC(=O)N2 [Example 9, 5-Hydroxy-6-diethylaminomethyl-8-methyl-3,4-dihydro-2(1H)-quinolinone] | 1 |
| CCN(CC)Cc1ccc2c(c1O)CCC(=O)N2 [Example 13, 6-diethylaminomethyl-5-hydroxy-3,4-dihydrocarbostyril] | 1 |
| CCCOc1cc(CN2CCCCC2)c(O)c2c1NC(=O)CC2.Cl [Example 30, 3,4-dihydro-8-propyloxy-5-hydroxy-6-(1-piperidinyl)methyl-2(1H)-quinolinone hydrochloride] | 2 |
| COc1cc(CN(C)C)c(O)c2c1NC(=O)CC2.Cl [Example 35, 6-(dimethylaminomethyl)-3,4-dihydro-5-hydroxy-8-methoxy-2(1H)-quinolinone hydrochloride] | 1.5 |
| C=CCOc1cc(CN2CCCCC2)c(O)c2c1NC(=O)CC2 [Example 33] | 1.5 |

Tested on: skin erythema (sunburn)
Assay: Effect for preventing skin sunburn caused by UV rays irradiation (in vivo)
Set-up: species or system albino guinea pig (Hartley strain, female)
Conditions: 3% test compound solution, 10 μl; 24 hours after UV irradiation
Procedure: (2) Effect for preventing skin sunburn caused by UV rays irradiation (in vivo)
This test is an experimental model of quantitative evaluation of effect for preventing skin sunburn, caused by UV rays irradiation, performed by the test compound. [Test was conducted by a modified method according to the procedures of J. Dermatol. Vol. 17, pp. 595-598, (1990).]
Hairs on the back of an albino guinea pig (Hartley strain, female, age of 7-8 weeks) were shaved by use of an electric hair clipper and an electric shaver. Next day, the guinea pig was fixed on a Bowlman cage, a piece of shading tape (a plaster for patch test) having 4 circular holes of 1.5 cm in diameter was put on the shaved portion of the skin, and predetermined 2 sections of UV rays irradiation. One section (reference section) was coated with 10 μl of a solvent (water or 50% ethanol-water solution). Another section (test section) was coated with 10 μl of 3% test compound solution (aqueous or 50% ethanol-water solution). 30 Minutes after the coating, UV rays of 1.3-1.5 mW/cm^2 in strength was irradiated for 30 minutes by use of a fluorescent lamp of healthy light (TOSHIBA FL-20.cndot.SE) as a light source. 24 Hours after the irradiation, the reference section (coated with the solvent only) and the test section (coated with test compound solution) were observed respectively, and the erythrochromia (Δa value) on both reference section and test section were measured by use of a color difference meter (OFC-300A Type, mfd. by NIHON DENSHOKU KOGYO CO., LTD). The inhibitory ratio of skin erythema (sunburn) performed by the test compound was calculated from the following formula.
Inhibitory ratio of skin erythema (sunburn) (%)={1-[(C)/(D)]}×100
(C): Δa Value of test section of skin coated with test compound solution,
(D): Δa Value of reference section of skin coated with the solvent only, and
Δa value: difference of skin erythema on the portion irradiated with UV rays].

| Structure (SMILES) | (C): Δa value of test section of skin coated with test compound solution |
| --- | --- |
| Cl.O=c1ccc2c(CN3CCCC3)c(O)ccc2[nH]1 [Example 22, 6-hydroxy-5-(1-pyrrolidinyl)methyl-2(1H)-quinolinone hydrochloride] | 5.51 ± 2.32 |
| CCN(CC)Cc1cc(C)c2c(c1O)CCC(=O)N2 [Example 9, 5-Hydroxy-6-diethylaminomethyl-8-methyl-3,4-dihydro-2(1H)-quinolinone] | 4.69 ± 1.62 |
| CCN(CC)Cc1ccc2c(c1O)CCC(=O)N2 [Example 13, 6-diethylaminomethyl-5-hydroxy-3,4-dihydrocarbostyril] | 3.93 ± 0.92 |
| CCCOc1cc(CN2CCCCC2)c(O)c2c1NC(=O)CC2.Cl [Example 30, 3,4-dihydro-8-propyloxy-5-hydroxy-6-(1-piperidinyl)methyl-2(1H)-quinolinone hydrochloride] | 4.73 ± 1.94 |
| COc1cc(CN(C)C)c(O)c2c1NC(=O)CC2.Cl [Example 35, 6-(dimethylaminomethyl)-3,4-dihydro-5-hydroxy-8-methoxy-2(1H)-quinolinone hydrochloride] | 3.61 ± 2.91 |
| C=CCOc1cc(CN2CCCCC2)c(O)c2c1NC(=O)CC2 [Example 33] | 3.96 ± 1.02 |

Same assay, conditions: Cavia porcellus, light or radiation study, topical, 24 h, {1-[(C)/(D)]}×100; 3% test compound solution; 24 hours after UV irradiation; read-out: Inhibitory ratio of skin erythema (%)

| Structure (SMILES) | inhibition in vivo at 3 % [%] |
| --- | --- |
| Cl.O=c1ccc2c(CN3CCCC3)c(O)ccc2[nH]1 [Example 22, 6-hydroxy-5-(1-pyrrolidinyl)methyl-2(1H)-quinolinone hydrochloride] | 37 |
| CCN(CC)Cc1cc(C)c2c(c1O)CCC(=O)N2 [Example 9, 5-Hydroxy-6-diethylaminomethyl-8-methyl-3,4-dihydro-2(1H)-quinolinone] | 38 |
| CCN(CC)Cc1ccc2c(c1O)CCC(=O)N2 [Example 13, 6-diethylaminomethyl-5-hydroxy-3,4-dihydrocarbostyril] | 42 |
| CCCOc1cc(CN2CCCCC2)c(O)c2c1NC(=O)CC2.Cl [Example 30, 3,4-dihydro-8-propyloxy-5-hydroxy-6-(1-piperidinyl)methyl-2(1H)-quinolinone hydrochloride] | 40 |
| COc1cc(CN(C)C)c(O)c2c1NC(=O)CC2.Cl [Example 35, 6-(dimethylaminomethyl)-3,4-dihydro-5-hydroxy-8-methoxy-2(1H)-quinolinone hydrochloride] | 51 |

Same assay, conditions: {1-[(C)/(D)]}×100; 3% test compound solution; 24 hours after UV irradiation

| Structure (SMILES) | Inhibitory ratio of skin erythema (%) |
| --- | --- |
| C=CCOc1cc(CN2CCCCC2)c(O)c2c1NC(=O)CC2 [Example 33] | 49 |

Tested on: skin pigmentation
Assay: Effect for preventing skin pigmentation caused by UV rays irradiation
Assay type: in vivo, colored guinea pig (A-1 strain, female)
Conditions: 3% test compound solution, 10 μl/cm^2; 14 days after UV irradiation
Procedure: (3) Effect for preventing skin pigmentation caused by UV rays irradiation This is an experimental model of quantitative evaluation of effect for preventing skin pigmentation caused by UV rays irradiation performed by test compound. [Test was conducted by a modified method according to procedures of J. Dermatol. Vol. 17, pp. 595-598,(1990).] Hairs on the back of a colored guinea pig (A-1 strain, female, age of 8-10 weeks) were shaved and the body of guinea pig was fixed on a Bowlman cage, and predermined 2 sections of UV rays irradiation. […] The inhibitory ratio of the skin pigmentation (%) performed by the test compound was calculated from the following formula. […] [wherein (E): ΔL value of brightness of the skin coated with test compound solution (test section), (F): ΔL value of brightness of the skin coated the solvent (reference section), and ΔL value: difference of brightness of the skin between the portion without irradiated and the portion irradiated with UV rays].

| Structure (SMILES) | (E): ΔL value of brightness of the skin coated with test compound solution (test section) |
| --- | --- |
| CCCOc1cc(CN2CCCCC2)c(O)c2c1NC(=O)CC2.Cl [Example 30, 3,4-dihydro-8-propyloxy-5-hydroxy-6-(1-piperidinyl)methyl-2(1H)-quinolinone hydrochloride] | -3.40 ± 1.18 |
| COc1cc(CN(C)C)c(O)c2c1NC(=O)CC2.Cl [Example 35, 6-(dimethylaminomethyl)-3,4-dihydro-5-hydroxy-8-methoxy-2(1H)-quinolinone hydrochloride] | -4.44 ± 2.17 |
| C=CCOc1cc(CN2CCCCC2)c(O)c2c1NC(=O)CC2 [Example 33] | -2.61 ± 2.98 |

Same assay, conditions: {1-[(E)/(F)]}×100; 3% test compound solution; 14 days after UV irradiation

| Structure (SMILES) | Inhibitory ratio of skin pigmentation (%) |
| --- | --- |
| CCCOc1cc(CN2CCCCC2)c(O)c2c1NC(=O)CC2.Cl [Example 30, 3,4-dihydro-8-propyloxy-5-hydroxy-6-(1-piperidinyl)methyl-2(1H)-quinolinone hydrochloride] | 50 |
| COc1cc(CN(C)C)c(O)c2c1NC(=O)CC2.Cl [Example 35, 6-(dimethylaminomethyl)-3,4-dihydro-5-hydroxy-8-methoxy-2(1H)-quinolinone hydrochloride] | 35 |
| C=CCOc1cc(CN2CCCCC2)c(O)c2c1NC(=O)CC2 [Example 33] | 55 |

Tested on: skin reaction (erythema and edema)
Assay: Skin sensitization test (Adjuvant and strip test), photosensitization
Assay type: in vivo, Albino guinea pigs (Hertley strain, female)
Conditions: 3% test compound solution, open-coated; observed 24 hours and 48 hours; [(G)/(H)]×100
Source text: (4) Skin sensitization test [Adjuvant and strip test: J. Invest. Dermatol., Vol. 76, pp 498-501, (1981)]
This test was used as experimental model for evaluating the existence of toxicity of photosensitization to the skin performed by the test compounds.
(i) Procedure for inducing photosensitization
Albino guinea pigs (Hertley strain, female, age of 5-6 weeks) were used. Hairs of the nuchal area of the guinea pig were shaved, and designated the test sample coating section having 2×4 cm in size. At the four corners of the test sample coating section, 0.1 ml each of E-FCA (an emulsion consisting of the same volume each of Freund's complete adjuvant with sterilized distilled water) were intracutaneouly injected. The coating section was subjected to striping repeatedly by use of Cellophane tape until the section turned to slightly erythema, then 0.1 ml of test compound solution (aqueous or 50% ethanol-water solution) of 3% in concentration was open-coated on the section. 30 Minutes after the coating, UV rays of about 10 J/cm^2 in dosage was irradiated by use of a fluorescent lamp of healthy light (TOSHIBA FL-20S-BLB) as a light source. The above-mentioned procedure was carried out once a day, and continuously conducted for 5 days, provided that E-FCA was administered only on the first day.
(ii) Procedure for introducing sensitization
3 Weeks after the beginning of induction period of photosensitization, the covering hairs on the back of guinea pig were shaved, and determined a circular section, having 1.5 cm in diameter, for coating test samples, and 20 μl of test compound solution (aqueous or 50% ethanol-water solution) of 3% in concentration was open-coated on the section. The test sample coated section was observed 24 hours and 48 hours, and examined existences of skin reaction (erythema and edema). In case of skin reaction was appeared, then it was determined as positive reaction in skin sensitization which was defined as a positive ratio (%) calculated from the following formula.
Positive ratio (%)=[(G)/(H)]×100
(G): Number of positive reactions in skin sensitization and
(H): Number of total animal tests].

| Structure (SMILES) | Positive ratio (%) |
| --- | --- |
| Cl.O=c1ccc2c(CN3CCCC3)c(O)ccc2[nH]1 [Example 22, 6-hydroxy-5-(1-pyrrolidinyl)methyl-2(1H)-quinolinone hydrochloride] | 0 |
| CCN(CC)Cc1cc(C)c2c(c1O)CCC(=O)N2 [Example 9, 5-Hydroxy-6-diethylaminomethyl-8-methyl-3,4-dihydro-2(1H)-quinolinone] | 0 |
| CCN(CC)Cc1ccc2c(c1O)CCC(=O)N2 [Example 13, 6-diethylaminomethyl-5-hydroxy-3,4-dihydrocarbostyril] | 0 |
| CCCOc1cc(CN2CCCCC2)c(O)c2c1NC(=O)CC2.Cl [Example 30, 3,4-dihydro-8-propyloxy-5-hydroxy-6-(1-piperidinyl)methyl-2(1H)-quinolinone hydrochloride] | 0 |
| COc1cc(CN(C)C)c(O)c2c1NC(=O)CC2.Cl [Example 35, 6-(dimethylaminomethyl)-3,4-dihydro-5-hydroxy-8-methoxy-2(1H)-quinolinone hydrochloride] | 0 |
| C=CCOc1cc(CN2CCCCC2)c(O)c2c1NC(=O)CC2 [Example 33] | 0 |
